Results published in patent US10745401B2, “Condensed lactam derivative” (Sumitomo Dainippon Pharma Co., Ltd., priority 2018, dated 2020).

Legend:
[1] = biological target: T1, human 5-HT2A receptor (Homo sapiens (Human), UniProt P28223); assay: Test 1: binding activity for human 5-HT2A receptor ([3H]Ketanserin, CHO cell membrane fraction)
Method in brief: (§1)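 CHO-cell membranes with [3H]ketanserin (5-HT2A) or [3H]spiperone (D2) were incubated with compound for 60 min at room temperature, then filtered, and bound radioactivity was counted by scintillation. Ki = IC50/(1+S/Kd), with ligand Kd from saturation binding on the same membranes.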

[2] = biological target: T2, human 5-HT1A receptor (Homo sapiens (Human), UniProt P08908); assay: Test 2: agonist activity for human 5-HT1A receptor ([35S]GTPγS binding); format: biochemical; settings: for EC50: [35S]GTPγS binding, concentration at which half the activity of Emax was obtained; for Emax at 10 µM: agonist activity in the presence of 10 μM of compound, relative to 100 μmol/L 5-HT
T2 sequence (P08908 whole entry): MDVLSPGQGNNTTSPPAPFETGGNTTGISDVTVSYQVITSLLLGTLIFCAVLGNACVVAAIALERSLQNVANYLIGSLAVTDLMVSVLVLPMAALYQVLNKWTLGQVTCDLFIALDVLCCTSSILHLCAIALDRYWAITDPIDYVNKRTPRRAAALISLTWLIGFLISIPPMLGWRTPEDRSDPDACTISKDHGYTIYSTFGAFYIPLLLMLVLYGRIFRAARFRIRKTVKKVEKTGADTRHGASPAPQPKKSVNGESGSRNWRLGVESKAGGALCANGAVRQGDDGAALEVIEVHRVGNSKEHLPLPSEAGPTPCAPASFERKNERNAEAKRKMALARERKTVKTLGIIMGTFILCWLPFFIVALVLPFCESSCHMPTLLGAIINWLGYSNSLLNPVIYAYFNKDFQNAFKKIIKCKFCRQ
Method in brief: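 Membranes from CHO cells expressing human 5-HT1A incubated with compound, GDP-containing buffer and [35S]GTPγS for 60 min at room temperature. Bound radioactivity collected by glass-fibre filtration and counted by liquid scintillation; agonist activity derived from a formula.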

[3] = biological target: human D2 receptor (Homo sapiens (Human), UniProt P14416); assay: Test 1: binding activity for human D2 receptor ([3H]Spiperone, CHO cell membrane fraction); settings: for Ki: human D2 receptor, [3H]Spiperone; for D2 Ki/5-HT1A Ki / D2 Ki/5-HT2A Ki: selectivity ratio
Sequence of human D2 receptor (P14416 whole entry): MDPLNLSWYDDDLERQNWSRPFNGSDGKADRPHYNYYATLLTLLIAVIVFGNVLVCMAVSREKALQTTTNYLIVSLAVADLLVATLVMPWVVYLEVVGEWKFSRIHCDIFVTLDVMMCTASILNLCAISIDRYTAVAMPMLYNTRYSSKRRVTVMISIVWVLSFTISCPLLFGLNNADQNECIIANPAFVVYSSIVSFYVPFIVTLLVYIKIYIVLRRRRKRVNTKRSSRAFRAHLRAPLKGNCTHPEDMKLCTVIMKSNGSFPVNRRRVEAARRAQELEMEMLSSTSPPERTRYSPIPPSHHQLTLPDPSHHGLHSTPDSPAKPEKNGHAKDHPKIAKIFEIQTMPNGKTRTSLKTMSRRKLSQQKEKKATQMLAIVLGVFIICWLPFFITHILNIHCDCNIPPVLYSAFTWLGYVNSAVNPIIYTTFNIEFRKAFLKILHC
Method in brief: as §1

[4] = Test 4: metabolic stability test in human hepatic microsome; format: in vitro ADME; settings: 0.1 mg/mL microsome, 0.1 μmol/L compound, 37° C., 30 minutes
Method in brief: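 Compound at 0.1 μmol/L incubated 30 min at 37° C with human liver microsomes (0.1 mg/mL) and NADPH (3.2 mmol/L) in 25 mmol/L phosphate buffer, pH 7.4. Residual compound measured by LC-MS; stability (mL/min/mg protein) = −LN(residual ratio)/30/0.1.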

[5] = biological target: T1, human 5-HT2A receptor; assay: Test 3: antagonist activity for human 5-HT2A receptor (aequorin luminescence, CHO-K1 cells); format: cell-based; settings: CHO-K1 cells, 1 nmol/L 5-HT
Method in brief: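 CHO-K1 cells transiently co-expressing aequorin, Gα16 and receptor; compound in DMSO added and luminescence recorded on FDSS/μCELL.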

[6] = biological target: P-gp (MDR1) (Homo sapiens (Human), UniProt P08183); assay: Test 9: P-gp substrate property (NFR, MDCKII and MDR1-MDCKII cells); format: in vitro ADME; settings: Net Flux Ratio, MDR1-MDCKII vs MDCKII cells
Sequence of P-gp (MDR1) (P08183 whole entry, species assumed): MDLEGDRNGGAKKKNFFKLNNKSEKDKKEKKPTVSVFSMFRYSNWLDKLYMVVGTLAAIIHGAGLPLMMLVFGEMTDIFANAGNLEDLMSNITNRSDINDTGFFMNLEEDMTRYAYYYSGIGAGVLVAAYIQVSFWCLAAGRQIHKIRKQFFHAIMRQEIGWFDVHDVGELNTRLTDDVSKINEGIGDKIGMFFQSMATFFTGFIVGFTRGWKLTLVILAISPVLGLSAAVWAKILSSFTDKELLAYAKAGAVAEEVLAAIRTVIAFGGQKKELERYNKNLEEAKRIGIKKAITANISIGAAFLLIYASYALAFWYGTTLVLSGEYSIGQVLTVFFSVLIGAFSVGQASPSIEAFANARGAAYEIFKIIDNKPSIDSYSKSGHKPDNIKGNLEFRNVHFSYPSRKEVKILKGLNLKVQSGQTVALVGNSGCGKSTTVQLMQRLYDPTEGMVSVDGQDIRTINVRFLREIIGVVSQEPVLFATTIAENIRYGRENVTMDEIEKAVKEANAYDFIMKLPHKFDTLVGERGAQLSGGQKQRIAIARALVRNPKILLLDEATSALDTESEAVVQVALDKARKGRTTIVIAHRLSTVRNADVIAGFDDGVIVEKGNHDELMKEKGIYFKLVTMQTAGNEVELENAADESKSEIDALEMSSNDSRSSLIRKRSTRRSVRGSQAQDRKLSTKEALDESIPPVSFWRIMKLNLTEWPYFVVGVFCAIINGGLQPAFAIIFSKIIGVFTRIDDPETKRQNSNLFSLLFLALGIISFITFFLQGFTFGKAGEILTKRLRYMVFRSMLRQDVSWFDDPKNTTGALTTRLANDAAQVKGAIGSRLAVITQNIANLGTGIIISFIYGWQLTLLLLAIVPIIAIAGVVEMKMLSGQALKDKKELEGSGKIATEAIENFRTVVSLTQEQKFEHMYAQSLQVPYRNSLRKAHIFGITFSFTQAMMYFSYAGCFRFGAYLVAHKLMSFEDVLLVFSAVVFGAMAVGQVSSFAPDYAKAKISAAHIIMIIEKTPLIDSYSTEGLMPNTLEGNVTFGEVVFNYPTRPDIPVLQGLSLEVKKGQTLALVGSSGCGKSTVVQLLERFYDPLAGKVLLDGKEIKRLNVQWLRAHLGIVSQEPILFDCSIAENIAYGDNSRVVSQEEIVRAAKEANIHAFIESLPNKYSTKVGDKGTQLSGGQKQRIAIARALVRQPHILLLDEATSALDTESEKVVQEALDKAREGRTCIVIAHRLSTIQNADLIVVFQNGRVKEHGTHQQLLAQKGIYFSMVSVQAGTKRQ
Experimental: […]
NFR (Net Flux Ratio), which is an index of P-gp substrate property, can be calculated as follows. MDCKII (Madin-Darby canine kidney strain II) cells and MDR1-MDCKII cells in which MDR1 (multidrug resistance protein 1) was overexpressed were used to measure an apparent permeability coefficient (Papp A-B) from lumen (A) to basement membrane (B) and an apparent permeability coefficient (Papp B-A) from basement membrane (B) to lumen (A) of both MDCKII cells and MDR1-MDCKII cells. NFR (Net Flux Ratio) was calculated from the ratio between Ratio (Papp B-A/Papp A-B) of an apparent permeability coefficient of MDR1-MDCKII cells and Ratio of an apparent permeability coefficient of MDCKII cells.

[7] = biological target: T2, human 5-HT1A receptor; assay: Test 1: binding activity for human 5-HT1A receptor ([3H]8-OH-DPAT, CHO cell membrane fraction)
Method in brief: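 Membranes incubated with [3H]8-OH-DPAT and compound for 60 min at room temperature, then filtered on polyethylenimine-coated glass-fibre plates and counted by liquid scintillation. IC50 from Hill analysis; Ki = IC50/(1+S/Kd), Kd from saturation binding on the same membranes.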

[8] = biological target: hERG channel (Homo sapiens (Human), UniProt Q12809); assay: Test 6-1: inhibitory activity for hERG channel (auto patch clamp, Qpatch); format: cell-based; settings: for hERG inhibition IC50 (nmol/L)/5-HT1A Ki (nmol/L): ratio of hERG IC50 to 5-HT1A Ki; for hERG inhibition IC50 (nmol/L)/5-HT2A Ki (nmol/L): ratio of hERG IC50 to 5-HT2A Ki; for IC50: whole cell auto patch clamp, hERG-CHO cells, read-out: hERG inhibition IC50
Sequence of hERG channel (Q12809 whole entry): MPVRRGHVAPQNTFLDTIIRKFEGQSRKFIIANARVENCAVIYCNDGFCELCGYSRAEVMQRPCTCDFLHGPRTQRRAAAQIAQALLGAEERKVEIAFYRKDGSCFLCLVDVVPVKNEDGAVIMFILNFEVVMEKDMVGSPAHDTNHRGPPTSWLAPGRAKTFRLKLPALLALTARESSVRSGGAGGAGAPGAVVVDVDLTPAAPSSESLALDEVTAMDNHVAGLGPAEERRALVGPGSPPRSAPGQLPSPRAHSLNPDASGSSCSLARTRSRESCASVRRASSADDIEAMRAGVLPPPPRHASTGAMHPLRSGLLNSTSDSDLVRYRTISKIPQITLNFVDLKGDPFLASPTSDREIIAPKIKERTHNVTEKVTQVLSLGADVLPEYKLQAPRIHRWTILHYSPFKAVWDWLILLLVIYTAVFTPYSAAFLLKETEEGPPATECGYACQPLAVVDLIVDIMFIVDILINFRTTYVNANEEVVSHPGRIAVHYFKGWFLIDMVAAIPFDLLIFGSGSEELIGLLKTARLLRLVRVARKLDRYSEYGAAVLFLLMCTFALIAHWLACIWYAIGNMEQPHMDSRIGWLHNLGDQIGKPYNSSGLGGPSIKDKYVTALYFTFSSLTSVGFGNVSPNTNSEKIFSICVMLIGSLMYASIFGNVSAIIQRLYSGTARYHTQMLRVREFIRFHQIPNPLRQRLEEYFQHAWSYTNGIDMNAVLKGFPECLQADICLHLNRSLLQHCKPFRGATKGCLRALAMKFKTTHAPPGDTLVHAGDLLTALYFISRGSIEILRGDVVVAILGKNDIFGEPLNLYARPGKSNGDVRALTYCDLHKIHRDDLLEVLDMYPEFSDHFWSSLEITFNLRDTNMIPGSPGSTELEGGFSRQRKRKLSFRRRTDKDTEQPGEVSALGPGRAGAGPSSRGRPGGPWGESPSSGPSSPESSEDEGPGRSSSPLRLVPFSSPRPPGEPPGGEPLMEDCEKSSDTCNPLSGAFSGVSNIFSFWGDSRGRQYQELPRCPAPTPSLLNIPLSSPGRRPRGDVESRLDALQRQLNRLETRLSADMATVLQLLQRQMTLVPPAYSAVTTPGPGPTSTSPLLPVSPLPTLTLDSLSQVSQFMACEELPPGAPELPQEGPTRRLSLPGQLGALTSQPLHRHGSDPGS
Method in brief: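 Whole-cell patch clamp on an automated system using CHO cells stably expressing human hERG (IKr); 15 s pulse interval. Four increasing compound concentrations applied cumulatively; mean peak tail current from last 3 stimulations per concentration used. IC50 from inhibition versus pre-compound current, fitted by Hill equation.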

T1 sequence (P28223 whole entry): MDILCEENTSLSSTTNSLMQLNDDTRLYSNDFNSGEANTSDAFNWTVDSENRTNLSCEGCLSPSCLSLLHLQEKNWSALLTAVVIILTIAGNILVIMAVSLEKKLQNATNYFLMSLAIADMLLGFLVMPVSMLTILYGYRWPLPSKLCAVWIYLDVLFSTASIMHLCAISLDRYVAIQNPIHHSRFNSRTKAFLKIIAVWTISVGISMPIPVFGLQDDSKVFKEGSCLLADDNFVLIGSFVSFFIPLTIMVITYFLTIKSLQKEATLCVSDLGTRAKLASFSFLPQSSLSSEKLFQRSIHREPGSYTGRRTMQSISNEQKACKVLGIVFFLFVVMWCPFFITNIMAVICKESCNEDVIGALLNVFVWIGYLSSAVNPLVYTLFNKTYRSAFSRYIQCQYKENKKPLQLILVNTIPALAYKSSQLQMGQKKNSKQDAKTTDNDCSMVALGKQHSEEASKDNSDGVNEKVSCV

Row | Structure (SMILES) | Ki [1] | EC50 [2] | Emax at 10 µM [2] | Ki [3] | D2 Ki/5-HT1A Ki [3] | D2 Ki/5-HT2A Ki [3] | Metabolic stability in human hepatic microsome [4] | IC50 [5] | NFR [6] | Ki [7] | hERG inhibition IC50 (nmol/L)/5-HT1A Ki (nmol/L) [8] | hERG inhibition IC50 (nmol/L)/5-HT2A Ki (nmol/L) [8] | IC50 [8] | IC50 ([5]; aequorin luminescence)
1 | Cn1ncc2c1C(=O)N(CCN1CCN(c3nsc4ccccc34)CC1)CC2 [Example 59] | 0.00045 µM | 0.008 µM | 61% | 0.125 µM | 63 | 278 | 0.173 mL/min/mg protein | 0.009 µM | 1.1 | 0.00199 µM | – | – | – | –
2 | CCc1ccc2c(n1)C(=O)N(CCN1CCC(c3noc4ccccc34)CC1)CC2 [Example 185] | 0.0283 µM | 0.0953 µM | 52% | 1.17 µM | 358.6 | 41.4 | <0.05 mL/min/mg protein | – | 2.4 | 0.00326 µM | 214 | 25 | 0.7 µM | 0.0687 µM
3 | Cn1ccc2c1CCN(CCN1CCC(c3noc4ccccc34)CC1)C2=O [Example 60] | 0.0011 µM | 0.043 µM | 54% | 0.26 µM | 19 | 236 | 0.018 mL/min/mg protein | 0.00391 µM | 1.5 | 0.0137 µM | 51 | 640 | 0.7 µM | –
4 | Cn1ncc2c1CCCN(CCN1CCC(c3noc4ccccc34)CC1)C2=O [Example 43] | 0.00093 µM | 0.0085 µM | 73% | 0.222 µM | 171 | 239 | <0.01 mL/min/mg protein | 0.00652 µM | 2.2 | 0.0013 µM | 1630 | 2274 | 2.1 µM | –
5 | Cc1nc2c(o1)C(=O)N(CCN1CCC(c3noc4ccccc34)CC1)CCC2 [Example 154] | 0.0131 µM | 0.0451 µM | 58% | 0.718 µM | 35.6 | 54.9 | <0.05 mL/min/mg protein | – | – | 0.0202 µM | 35 | 54 | 0.7 µM | 0.316 µM
6 | Cn1ncc2c1C(=O)N(CCN1CCC(c3noc4ccccc34)CC1)CC2 [Example 96, 6-{2-[4-(1,2-Benzoisoxazol-3-yl)piperidin-1-yl]ethyl}-1-methyl-1,4,5,6-tetrahydro-7H-pyrazolo[3,4-c]pyridin-7-one] | 0.00725 µM | 0.0655 µM | 33% | 0.103 µM | 9 | 14 | 0.019 mL/min/mg protein | 0.02 µM | – | 0.0118 µM | 97 | 159 | 1.2 µM | –
7 | Cn1cnc2c1CCN(CCN1CCN(c3nsc4ccccc34)CC1)C2=O [Example 54] | – | 0.0384 µM | 55% | – | – | – | <0.01 mL/min/mg protein | 0.013 µM | 6.6 | – | >3637 | >1538 | > 10 µM | –
8 | Cc1nc2c(o1)CCCN(CCN1CCC(c3noc4ccccc34)CC1)C2=O [Example 157] | 0.0145 µM | 0.0527 µM | 47% | 0.641 µM | 302.1 | 44.2 | <0.05 mL/min/mg protein | – | – | 0.00212 µM | 754 | 110 | 1.6 µM | 0.115 µM
9 | O=C1c2nc(Cl)ccc2CCN1CCN1CCC(c2noc3ccccc23)CC1 [Example 146] | 0.0107 µM | 0.00607 µM | 55% | 0.772 µM | 255.8 | 72.4 | <0.05 mL/min/mg protein | – | 2.3 | 0.00302 µM | 99 | 28 | 0.3 µM | 0.199 µM
10 | Cn1cc2c(n1)CCN(CCN1CCN(c3nsc4ccccc34)CC1)C2=O [Example 36, 5-{2-[4-(1,2-Benzoisothiazol-3-yl)piperazin-1-yl]ethyl}-2-methyl-2,5,6,7-tetrahydro-4H-pyrazolo[4,3-c]pyridin-4-one] | 0.00062 µM | 0.0027 µM | 78% | 0.903 µM | 2007 | 1456 | 0.085 mL/min/mg protein | 0.006 µM | 1.8 | 0.00045 µM | 7112 | 5162 | 3.2 µM | –
11 | O=c1c2cnccc2ccn1CCN1CCN(c2noc3ccccc23)CC1 [Example 116] | 0.026 µM | 0.882 µM | 60% | > 10 µM | – | – | 0.1 mL/min/mg protein | – | – | 0.128 µM | – | – | 5.3 µM | 0.0497 µM
